Entries after “also recorded” stand apart in the source; their conditions may differ. Peptide text beside a SMILES is read from it. * marks the point of attachment. Cbz = O=C(OCc1ccccc1)*
Assays:
3T3-L1 cells = test: Adipocyte differentiation of 3T3-L1 cells, oil red O staining; format: cell-based, mouse
Method: FIGS. 1A-E illustrate that c-Abl is required for adipocyte differentiation. (A) c-Abl activity increases during adipogenesis. 3T3-L1 adipoblasts were induced to differentiate with medium containing 5 μg/ml Insulin, 1 μM Dexamethasone and 0.5 mM IBMX. Cells were lysed at the indicated times and protein levels were analyzed by Western blotting. The proteasomal subunit PSMA4 served as a loading control. […] Cells were stained with oil red O and photographed at day 8. (C) c-Abl is required in adipocyte differentiation. 3T3-L1 expressing shRNA against either GFP or c-Abl were induced to differentiate and stained with oil red 0 at day 10. (D) c-Abl is required for expression of PPARγ and its target genes during adipogenesis. 3T3-L1 cells expressing shRNA against either GFP or c-Abl were induced to differentiate as in (A). Cells were lysed at the indicated times and protein levels were analyzed by Western blotting. (E) c-Abl is required for transcription of PPARγ pro-adipogenic target genes but not for transcription of PPARγ itself. At day 4 of differentiation, RNA from 3T3-L1 cells was analyzed for mRNA expression of the indicated genes by quantitative PCR.
FIG. 15 are photographs illustrating differentiation of 3T3-L1 preadipocytes with or without Chk1 inhibitor, UCN-01. […]

[1] = system: mesenchymal stromal cells; details: Fitter S, et al. (2008); cited from earlier work
CML patients = details: Fitter S, et al. (2010); cited from earlier work
[2] = system: PPARγ2 (wild type, Flag-tagged)
PPARγ2 = PPARγ2 accumulation after proteasomal inhibition in c-Abl-depleted 3T3-L1 cells (immunoblotting); format: cell-based, mouse; details: c-Abl-depleted 3T3-L1, day 5 of differentiation, 25 μg MG-132, lysed after 5 h
Method: FIGS. 2A-C illustrate that c-Abl prolongs PPARγ2 half-life. (A) Proteasomal inhibition in mid-differentiation results in PPARγ2 accumulation. 3T3-L1 cells expressing shRNA to GFP (control) or c-Abl were induced to differentiate using insulin, dexamethasone and IBMX. On day 5, cells were treated with 25 μg MG-132 and lysed after 5 h. Protein levels were analyzed by immunoblotting. (B) c-Abl stabilizes PPARγ2. HEK293 cells were transfected with plasmids expressing HA-PPARγ2 with or without active c-Abl. Twenty-four hours after transfection, cells were treated with 20 μg/ml cycloheximide for different time points. […] The ratio between immunoprecipitated poly-ubiquitinated PPARγ2 ladder and PPARγ2 protein level from 3 independent experiments was quantified (*** −p<0.005).
The present inventors investigated whether c-Abl might play a role in PPARγ2 accumulation. […] Next, the present inventors measured PPARγ2 protein half-life in the presence or absence of an active form of c-Abl (41-81 c-Abl). […] To investigate the possibility that c-Abl supports PPARγ2 stabilization via inhibition of the poly-ubiquitination of PPARγ2, an octameric tandem fusion of HA-tagged ubiquitin was co-expressed together with Flag-tagged PPARγ2 with or without active c-Abl and the pattern of the poly-ubiquitinated PPARγ2 ladder was analyzed.

Molecule: CN[C@@H]1C[C@H]2O[C@@](C)([C@@H]1OC)n1c3ccccc3c3c4c(c5c6ccccc6n2c5c31)C(=O)N[C@@H]4O [UCN-01]
- differentiation of 3T3-L1 preadipocytes (3T3-L1 cells; with or without Chk1 inhibitor UCN-01 (FIG. 15)): completely inhibit

Molecule: Cc1ccc(NC(=O)c2ccc(CN3CCN(C)CC3)cc2)cc1Nc1nccc(-c2cccnc2)n1 [STI-571, imatinib]
- adipogenesis (adipocyte differentiation) (3T3-L1 cells; 3T3-L1 induced with insulin, dexamethasone, IBMX, STI-571 added 7 hours after differentiation onset until day 5, oil red O at day 8, even at low inhibitor concentration): markedly reduced; also recorded: inhibits adipocyte differentiation
- adipocytic differentiation of mesenchymal stromal cells [1]: promote adipocytic differentiation
- fat accumulation (CML patients): associated with fat accumulation
- insulin sensitivity (CML patients): improved insulin sensitivity

Molecule: c-Abl Δ1-81 (active form of c-Abl)
- tyrosine phosphorylation detected with anti-phosphotyrosine antibody (PY20) after immunoprecipitation using anti-HA beads (HA-PPARγ1): HA-PPARγ1 was only poorly phosphorylated by c-Abl
- tyrosine phosphorylation of PPARγ2 detected with anti-phosphotyrosine antibody (PY20) after immunoprecipitation [2]: unlike HA-PPARγ2, HA-PPARγ1 was only poorly phosphorylated by c-Abl (FIG. 3D). Similar results were obtained using Flag-PPARγ2
- tyrosine phosphorylation detected with anti-phosphotyrosine antibody (PY20) after immunoprecipitation using anti-Flag beads (PPARγ2 P12A variant): the P12A variant was inefficient in binding to c-Abl and in undergoing phosphorylation by the kinase

Molecule: CC(C)C[C@@H](C=O)NC(=O)[C@H](CC(C)C)NC(=O)[C@H](CC(C)C)NC(=O)OCc1ccccc1 [MG-132] (Cbz-Leu-Leu-Leu-aldehyde)
- PPARγ2 protein level (PPARγ2): markedly increased

— patent US20170298361A1, “USE OF AGENTS FOR TREATING FAT-RELATED DISORDERS” (Yeda Research and Development Co. Ltd., priority 2014, published 2017)
